These are literature values, as cited in the CATMoS acute toxicity set (Mansouri et al. 2021).

Where “and” joins values, the source holds several entries; their conditions need not be identical. Identical values can stand only once.

The data set is described as follows: rat acute oral toxicity. To be noted: in vivo.
`CC[C@H]1OC(=O)[C@H](C)[C@@H](O[C@H]2C[C@@](C)(OC)[C@@H](O)[C@H](C)O2)[C@H](C)[C@@H](O[C@@H]2O[C@H](C)C[C@H](N(C)C)[C@H]2O)[C@](C)(OC)C[C@@H](C)C(=O)[C@H](C)[C@@H](O)[C@]1(C)O`: the LD50 was 1270 mg/kg. As for `CCOCc1cnc(C)nc1N`, the LD50 was 1450 mg/kg.

For `CCCC(=O)c1ccc(N)cc1`, the LD50 is 84 mg/kg. For `CC(C)C1NC(=O)c2ccccc2O1` (stereo not given), the LD50 is 1850 mg/kg. As for `Cc1cc(N)ccc1S(=O)(=O)NCCO`, the LD50 is 8900 mg/kg. `Cc1cc(O)c(C(C)(C)C)cc1C`: the LD50 was 1030 mg/kg. On to `CN(C)S(=O)(=O)c1cc(Cl)c(N)cc1Cl`, for which the LD50 was 4090 mg/kg. As for `O=c1[nH]c2ccccc2c(=O)n1CCCN1CCN(c2cccc(Cl)c2)CC1`, the LD50 is 7650 mg/kg. Turning to `CCCCC(O)CC` (stereo not given), the LD50 was 1870 mg/kg. Turning to `CCOC(=O)C1=CN(CC)C2CCCC(C)N2C1=O` (stereo not given), the LD50 was 746 mg/kg.

As for `CC1=NN(c2ccccc2)C(=O)C1`, the LD50 is 1920 mg/kg. Take `CC(C)(C)C1CCC(NCCC(c2ccccc2)c2ccccc2)CC1` (stereo not given): the LD50 was 2550 mg/kg. For `Cc1ccc(C(=O)c2ccc(CC(=O)NNCC(=O)N3CCN(C)CC3)n2C)cc1`, the LD50 is 978 mg/kg. As to `CC(C)(SC(=O)N1CCCCC1)c1ccccc1`, the LD50 was 946 mg/kg.

`CCCCCCCCCC=CC(=O)OC(=O)C=CCCCCCCCCC`: the LD50 was 3800 mg/kg. As for `CC(C(=O)O)c1ccc2c(c1)CC(C(C)C)C2` (stereo not given), the LD50 is 1500 mg/kg. In the case of `C=CCOC(=O)c1ccc(C(=O)OCC=C)c(C(=O)OCC=C)c1`, the LD50 is 2400 mg/kg. For `FC(F)(F)c1nc2c(Br)c(Br)c(Br)cc2[nH]1`, the LD50 is 7.18 mg/kg. In the case of `CCOC(OCC)OCC`, the LD50 is 7060 mg/kg. With `C[Si](C)(C)OP(=O)(O[Si](C)(C)C)O[Si](C)(C)C`, the LD50 is 3440 mg/kg.

Turning to `CC(Cc1ccc(C(C)(C)C)cc1)CN1C[C@@H](C)O[C@@H](C)C1` (single isomer, unassigned), the 50% lethal dose (LD50) is 3540 mg/kg. In the case of `Sc1nc2ccccc2s1`, the LD50 was 100 mg/kg. For `CC(C)Oc1cccc(C2CC(=O)NC2=O)c1` (stereo not given), the LD50 is 2400 mg/kg. As for `C=CCl`, the LD50 was 500 mg/kg.

As to `COc1cc2[nH]c(=N)sc2cc1OC`, the LD50 was 1160 mg/kg.

Regarding `CCNC(=O)C(SP(=S)(OC)OC)C(=O)NCC`, the LD50 was 1000 mg/kg.

On to `CCCCC(CC)COC(C[n+]1ccccc1)c1cccc(C2CCCCC2)c1` (stereo not given), for which the LD50 was 250 mg/kg. In the case of `O=C1C(=C(Cl)Cl)C(=O)C2(Cl)C3C=CC(C3)C12Cl` (stereo not given), the LD50 was 2760 mg/kg. As for `CCCCC(CC)CNC(=O)CC(C)OC(=O)CCC(=O)O` (stereo not given), the LD50 was 12100 mg/kg. For the compound `Cn1cc(CCc2cc[n+](CCC[N+](C)(C)C)cc2)c2ccccc21`, the LD50 is 200 mg/kg. `CCCCP(CCCC)CCCC`: the LD50 was 750 mg/kg. Turning to `NC(=S)Nc1ccc(-c2ccc(NC(N)=S)cc2)cc1`, the LD50 is 200 mg/kg. With `C=CCOC(=O)C=Cc1ccccc1`, the LD50 is 1520 mg/kg. `COc1ccc(N)c([N+](=O)[O-])c1`: the LD50 was 14100 mg/kg.

Regarding `C=CCC1(C(C)CC)C(=O)NC(=O)NC1=O` (stereo not given), the LD50 is 57.5 mg/kg. Regarding `C/C=C\COCN(C(=O)CCl)c1c(CC)cccc1CC`, the LD50 is 1630 mg/kg. As for `CCN(CC)CCNC(=O)COc1cc(OC)c(OC)c(OC)c1`, the LD50 is 1760 mg/kg. Take `O=C=Nc1ccc([N+](=O)[O-])cc1`: the LD50 is 1600 mg/kg. Take `CC(C)(C)c1cc(CCC(=O)NCCN)cc(C(C)(C)C)c1O`: the LD50 was 1560 mg/kg. In the case of `CN1CCN(C(=O)N/N=C/c2ccc([N+](=O)[O-])o2)CC1`, the LD50 was 750 mg/kg.

As to `CC(C(=O)O)c1ccc(-c2ccccc2F)cc1` (stereo not given), the LD50 is 337 mg/kg.

Consider `Brc1cc2c(cc1Br)Oc1cc(Br)c(Br)cc1O2`, for which the LD50 is 0.1 mg/kg. Take `COc1ccc2c3c1O[C@H]1C[C@@H](O)C=C[C@@]31CCN(C)C2`: the LD50 was 75 mg/kg. `CC(C(=O)OCCN1CCN(CCOC(=O)C(C)c2cccc3ccccc23)CC1)c1cccc2ccccc12` (stereo not given): the LD50 was 5550 mg/kg.

For the compound `CC(=O)O[C@H]1C[C@@H]2CC[C@@H]3[C@H](CC[C@@]4(C)[C@H]3C[C@H]([N+]3(C)CCCCC3)[C@@H]4OC(C)=O)[C@@]2(C)C[C@@H]1N1CCCCC1`, the LD50 is 455 mg/kg.

`CCN(CC)CCOc1nn(-c2cccc(C(F)(F)F)c2)c2ncccc12`: the LD50 was 1200 mg/kg. `CC(=O)OCC1=C(C(=O)O)N2C(=O)[C@@H](NC(=O)CSc3ccncc3)[C@H]2SC1`: the LD50 is 16400 mg/kg. Regarding `CNC(=O)Oc1cccc(C(C)C)c1Cl`, the LD50 was 35 mg/kg. For the compound `CN1CCN(CCCCCCCCNC(=O)Oc2ccc3c(c2)C2(C)CCN(C)C2N3C)CC1` (stereo not given), the LD50 was 27.7 mg/kg. On to `N[C@@H](Cc1c[nH]c2ccc(O)cc12)C(=O)O`, for which the LD50 was 243 mg/kg. Regarding `C=CCSC(C)C1(CC=C)C(=O)N=C(O)NC1=O` (stereo not given), the LD50 is 346 mg/kg. In the case of `CCOC(=O)CC(CC(=O)OCC)(OC(C)=O)C(=O)OCC`, the LD50 is 7000 mg/kg. Consider `O=S1(=O)CCC(NC(=S)S)C1` (stereo not given), for which the LD50 was 1700 mg/kg.

For the compound `CCCN(CCC)C(=O)C(CCC(=O)O)NC(=O)c1ccccc1` (stereo not given), the LD50 is 20000 mg/kg and 8200 mg/kg. In the case of `FC(F)(F)c1nc2c(Cl)ccc(Cl)c2[nH]1`, the LD50 is 2.61 mg/kg. Turning to `O=C1C=CC(=O)N1c1ccccc1Cl`, the LD50 is 520 mg/kg. Turning to `COc1ccc2c(c1)c(CC(=O)OC(C)c1ccccc1)c(C)n2C(=O)c1ccc(Cl)cc1` (stereo not given), the LD50 was 425 mg/kg. Turning to `C=CCC(CC=C)(C(=O)OCCN(CC)CC)c1ccccc1`, the LD50 was 1500 mg/kg. Consider `CCCCC(=O)Cc1ccccc1`, for which the LD50 was 4400 mg/kg. With `CC(C)[C@@]1(NC(=O)[C@@H]2C[C@@H]3c4cccc5[nH]cc(c45)C[C@H]3N(C)C2)O[C@@]2(O)[C@@H]3CCCN3C(=O)[C@H](Cc3ccccc3)N2C1=O`, the LD50 is 2640 mg/kg. With `COP(=O)(OC)OC(=CBr)c1ccc(Cl)cc1Cl`, the LD50 is 225 mg/kg. For `C=COCC(CC)CCCC` (stereo not given), the LD50 is 1350 mg/kg. For the compound `COC(=O)Cc1cccc2ccccc12`, the LD50 was 1900 mg/kg. `CN(CCO)c1ccccc1`: the LD50 is 2830 mg/kg. For the compound `C=CP(=O)(OCCCl)OCCCl`, the LD50 is 990 mg/kg. As to `Cc1cc(CCN2CCN(c3cccc(Cl)c3)CC2)n[nH]1`, the LD50 is 570 mg/kg. As for `C1CCc2c(OCCN3CCOCC3)n[nH]c2C1`, the LD50 is 1600 mg/kg.

Turning to `COC(=O)C=C(C)N`, the LD50 was 1760 mg/kg.

For the compound `CCOP(=S)(N=C1SCCS1)OCC`, the LD50 is 14 mg/kg. For `C=CC[N@@+]12CC[C@@]34c5ccccc5N5C=C6[C@H]7C[C@H]8[C@@]9(CC[N@@+]8(CC=C)C/C7=C/CO)c7ccccc7N(C=C([C@@H](C[C@@H]31)/C(=C\CO)C2)[C@H]54)[C@@H]69`, the LD50 was 27.6 mg/kg. For the compound `CO[Si](OC)(OC)c1ccccc1`, the LD50 is 1050 mg/kg.

Take `CCOCCN(C(=O)CCl)C(=C(C)C)c1ccccc1`: the LD50 is 983 mg/kg. With `O=S(=O)(Cl)c1ccccc1Cl`, the LD50 is 7500 mg/kg.

In the case of `CCN1C[C@H]2CN(C)C[C@@H](C1)C2OC(=O)c1ccc(Cl)cc1` (stereo not given in full), the LD50 is 383 mg/kg. `CCCOc1ccc(C(CN(C)C)C(C)CC)cc1Cl` (stereo not given): the LD50 was 741 mg/kg. As to `C#CCN1CCC2=C(C1)c1c(O)cc(C(C)C(C)CCCCC)cc1OC2(C)C` (stereo not given), the LD50 is 900 mg/kg. In the case of `CC(C)OC(C)C`, the LD50 was 8470 mg/kg. Turning to `O=C(O)C(Br)Br`, the LD50 is 1740 mg/kg.

`S=c1[nH]c2cc(Cl)ccc2o1`: the LD50 is 1000 mg/kg. For `C=C(C)CC#N`, the LD50 was 540 mg/kg. `CCOC(C1=NCC(OC)CN1)c1ccccc1` (stereo not given): the LD50 is 875 mg/kg. As for `OC[C@H]1O[C@@H](O[C@@H]2[C@@H](CO)O[C@](O)(CO)[C@H]2O)[C@H](O)[C@@H](O)[C@H]1O`, the LD50 was 18200 mg/kg. Take `CCC1(CC)C(=O)C=CNC1=O`: the LD50 was 780 mg/kg.

As to `C#CC(=O)C=CC`, the LD50 was 71 mg/kg. For the compound `CCOP(=S)(OCC)SC(CBr)N1C(=O)c2ccccc2C1=O` (stereo not given), the LD50 was 18 mg/kg. For the compound `CCCCC(CC)C(=O)O[Si](C)(OC(=O)C(CC)CCCC)OC(=O)C(CC)CCCC` (stereo not given), the LD50 was 2280 mg/kg.

For the compound `CCOC(=O)OC(=O)OCC`, the LD50 was 850 mg/kg. `O=P(CCn1c(Cc2ccccc2)nc2ccccc21)(OCCCl)OCCCl`: the LD50 was 6200 mg/kg.

For the compound `c1ccc2c(c1)Oc1ccccc1O2`, the LD50 is 1220 mg/kg. `ClC1=C(Cl)[C@]2(Cl)[C@@H]3[C@@H](Cl)[C@H](Cl)[C@@H](Cl)[C@@H]3[C@@]1(Cl)C2(Cl)Cl` (racemic): the LD50 was 500 mg/kg. Turning to `O=C(OOC(=O)c1ccccc1)c1ccccc1`, the LD50 is 7710 mg/kg. For the compound `O=C1NCCCN1Cc1ccc(Cl)c(Cl)c1`, the LD50 is 815 mg/kg. Turning to `ClC1=C(Cl)C2(Cl)C(C(Cl)Cl)CC1(Cl)C2(Cl)Cl` (stereo not given), the LD50 is 1600 mg/kg.

Turning to `CC(CC(C)(C)O)OCCC#N` (stereo not given), the LD50 is 3200 mg/kg. On to `CCOC(C1=NCCCN1)c1c(Cl)cccc1Cl` (stereo not given), for which the LD50 is 625 mg/kg. On to `CCBr`, for which the LD50 was 1350 mg/kg. Consider `OC(c1ccccc1)(c1ccccc1)C1CN2CCC1CC2` (stereo not given), for which the LD50 was 440 mg/kg. Take `Nc1cc2c(S(=O)(=O)O)cc(S(=O)(=O)O)cc2cc1S(=O)(=O)O`: the LD50 was 13000 mg/kg.

Turning to `CCN(CC)CCOCc1ccc(C)cc1`, the LD50 is 531 mg/kg. Take `CCCCCCCCC(CC=CCl)CCCN` (stereo not given): the LD50 was 1320 mg/kg. For the compound `OC1CC2CC1C1CC=CC21` (stereo not given), the LD50 was 3200 mg/kg.

Consider `OC(CCl)CN1CCCN(CC(O)CCl)c2ccccc21` (stereo not given), for which the LD50 is 750 mg/kg. Take `C=Cc1ccncc1`: the LD50 is 100 mg/kg. For the compound `c1ccc(CCc2ccccc2)cc1`, the LD50 is 4520 mg/kg. With `CNC(=O)Oc1ccccc1Cl`, the LD50 was 648 mg/kg. On to `O=CN(c1ncnc2c1ncn2C1CC1)C1CC1`, for which the LD50 is 175 mg/kg. `CC(C)(C)OC(=O)CCl`: the LD50 was 380 mg/kg. Consider `O=C(O)c1cc(Oc2ccc(C(F)(F)F)cc2Cl)ccc1[N+](=O)[O-]`, for which the LD50 was 1370 mg/kg. Consider `CCn1c(=O)oc2ccc(Cl)cc21`, for which the LD50 is 1350 mg/kg.

On to `CCCC(=O)C(CC)Cc1ccccc1` (stereo not given), for which the LD50 is 4400 mg/kg.

As for `C[Si](Cl)(Cl)CCC(F)(F)F`, the LD50 is 1000 mg/kg. On to `COc1ccccc1C1CCN(CCCc2ccc3c(c2)CCC(=O)N3)CC1`, for which the median lethal dose (LD50) was 500 mg/kg. In the case of `CNC(=O)Oc1cccc2c(O)cccc12`, the LD50 was 297 mg/kg. Regarding `COC(=O)C(C(C)=O)C(C)=O`, the LD50 is 1700 mg/kg.

For `CCCCCCC=NO`, the LD50 was 1040 mg/kg.

For orientation: LD50 means the dose at which mortality reaches 50%.
